Source: patent publication US20240368135A1 (VERTEX PHARMACEUTICALS INCORPORATED, priority 2021, published 2024)
pIC50: −log10 of the molar value. Where two headings read alike, the source gives them in different places.

Molecular target: human NaV 1.8 (Homo sapiens, UniProt Q9Y5Y9)
Assay: E-VIPR assay detecting and measuring NaV inhibition properties
Assay type: cell-based
Settings: HEK cells expressing truncated human NaV 1.8
How it was run: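 Membrane potential was followed by coumarin/oxonol FRET during electrical field stimulation of matrigel-seeded HEK cells carrying truncated human NaV1.8 plus KIR2.1. Dosing used 11 points, 3-fold steps, top 300 nM final, 0.625% DMSO, with or without 25% human serum.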

[1] = no human serum, read-out: IC50 in the E-VIPR Assay

Sequence of human NaV 1.8 (Q9Y5Y9 126-399 limits assumed): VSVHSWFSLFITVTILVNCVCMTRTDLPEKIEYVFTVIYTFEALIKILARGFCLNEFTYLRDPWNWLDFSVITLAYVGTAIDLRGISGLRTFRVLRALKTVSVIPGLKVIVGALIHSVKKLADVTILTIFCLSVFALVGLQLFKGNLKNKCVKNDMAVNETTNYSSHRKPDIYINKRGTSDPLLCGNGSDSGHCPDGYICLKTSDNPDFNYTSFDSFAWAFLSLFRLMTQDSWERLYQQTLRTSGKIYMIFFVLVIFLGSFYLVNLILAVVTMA
Sequence of human NaV 1.8 (Q9Y5Y9 660-890 limits assumed): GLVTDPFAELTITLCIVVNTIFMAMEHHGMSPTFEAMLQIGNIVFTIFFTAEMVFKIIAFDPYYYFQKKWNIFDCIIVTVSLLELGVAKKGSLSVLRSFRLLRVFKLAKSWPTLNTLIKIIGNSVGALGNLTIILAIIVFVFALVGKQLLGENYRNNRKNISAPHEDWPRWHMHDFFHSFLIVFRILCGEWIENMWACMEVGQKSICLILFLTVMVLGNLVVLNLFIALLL
Sequence of human NaV 1.8 (Q9Y5Y9 1148-1722 limits assumed): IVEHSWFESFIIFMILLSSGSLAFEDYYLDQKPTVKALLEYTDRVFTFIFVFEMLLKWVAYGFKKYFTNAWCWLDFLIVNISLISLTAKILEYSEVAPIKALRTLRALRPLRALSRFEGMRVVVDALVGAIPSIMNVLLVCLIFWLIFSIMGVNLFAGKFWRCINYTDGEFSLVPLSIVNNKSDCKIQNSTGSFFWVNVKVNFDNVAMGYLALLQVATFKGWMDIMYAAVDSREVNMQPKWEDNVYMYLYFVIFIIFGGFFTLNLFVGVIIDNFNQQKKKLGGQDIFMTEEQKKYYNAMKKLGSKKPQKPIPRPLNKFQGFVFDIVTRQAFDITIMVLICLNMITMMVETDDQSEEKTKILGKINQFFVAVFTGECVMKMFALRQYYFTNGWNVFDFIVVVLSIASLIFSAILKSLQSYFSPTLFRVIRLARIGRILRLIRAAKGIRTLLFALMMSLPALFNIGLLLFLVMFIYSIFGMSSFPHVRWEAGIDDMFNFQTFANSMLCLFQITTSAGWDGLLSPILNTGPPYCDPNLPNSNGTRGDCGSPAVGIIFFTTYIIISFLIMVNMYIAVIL

Row | pIC50 (in the presence of human serum (compound numbers followed by *), read-out: IC50 in the E-VIPR Assay, performed in the presence of human serum) | pIC50 [1] | Compound
1 | ≤ 6.00 | – | COc1cc(F)ccc1[C@H]1C[C@@](C)(C(F)(F)F)O[C@@H]1C(=O)Nc1ccnc(S(C)(=O)=O)c1 (stereo in doubt) [Compound 713, rel-(2S,3R,5S)-3-(4-fluoro-2-methoxyphenyl)-5-methyl-N-(2-(methylsulfonyl)pyridin-4-yl)-5-(trifluoromethyl)tetrahydrofuran-2-carboxamide]
2 | – | > 8.00 | COc1c([C@H]2[C@H](C(=O)Nc3ccnc(N4CCN(C)CC4=O)c3)O[C@@](C)(C(F)(F)F)[C@H]2C)ccc(F)c1C(F)F (single isomer, unassigned) [Compound 162]
3 | – | 7.00 to 8.00 | COc1c([C@H]2[C@H](C(=O)Nc3cc(C(C)(C)O)ncn3)O[C@@](C)(C(F)(F)F)[C@H]2C)ccc(F)c1F [Compound 389, (2R,3S,4S,5R)-3-(3,4-difluoro-2-methoxy-phenyl)-N-[6-(1-hydroxy-1-methyl-ethyl)pyrimidin-4-yl]-4,5-dimethyl-5-(trifluoromethyl)tetrahydrofuran-2-carboxamide]
4 | – | > 8.00 | COc1c([C@H]2[C@H](C(=O)Nc3ccnc(S(N)(=O)=O)c3)O[C@@](C)(C(F)(F)F)[C@H]2C)ccc(F)c1F [Compound 188, (2R,3S,4S,5R)-3-(3,4-difluoro-2-methoxyphenyl)-4,5-dimethyl-N-(2-sulfamoylpyridin-4-yl)-5-(trifluoromethyl)tetrahydrofuran-2-carboxamide]
5 | – | > 8.00 | Cc1c(F)ccc(C2C(C(=O)Nc3ccn(C)c(=O)c3)OC(C)(C(F)(F)F)C2C)c1OC(F)F (stereo not shown) [Compound 98, 3-[2-(difluoromethoxy)-4-fluoro-3-methyl-phenyl]-4,5-dimethyl-N-(1-methyl-2-oxo-4-pyridyl)-5-(trifluoromethyl)tetrahydrofuran-2-carboxamide]
6 | – | > 8.00 | COc1c([C@H]2[C@H](C(=O)Nc3ccnc(C(CO)N(C)C)c3)O[C@@](C)(C(F)(F)F)[C@H]2C)ccc(F)c1F (single isomer, unassigned) [Compound 368]
7 | – | > 8.00 | COc1c([C@H]2[C@H](C(=O)Nc3cc(C(O)CO)ncc3C)O[C@@](C)(C(F)(F)F)[C@H]2C)ccc(F)c1F (single isomer, unassigned) [Compound 205, rel-(2R*,3S*,4S*,5R*)-3-(3,4-difluoro-2-methoxyphenyl)-N-(2-(1,2-dihydroxyethyl)-5-methylpyridin-4-yl)-4,5-dimethyl-5-(trifluoromethyl)tetrahydrofuran-2-carboxamide]
8 | – | 7.00 to 8.00 | COc1c([C@H]2[C@H](C(=O)Nc3ccc4nc(C(N)=O)nn4c3)O[C@@](C)(C(F)(F)F)[C@H]2C)ccc(F)c1F [Compound 16]
9 | – | > 8.00 | C[C@H]1[C@@H](c2ccc(F)c(F)c2OC(F)F)[C@H](C(=O)Nc2cncc(S(C)(=O)=O)c2)O[C@@]1(C)C(F)(F)F (single isomer, unassigned) [Compound 96]
10 | – | 7.00 to 8.00 | COc1c([C@H]2[C@H](C(=O)Nc3ccc(C(N)=O)[n+]([O-])c3)O[C@@](C)(C(F)(F)F)[C@H]2C)ccc(F)c1F [Compound 2, 2-carbamoyl-5-((2R,3S,4S,5R)-3-(3,4-difluoro-2-methoxyphenyl)-4,5-dimethyl-5-(trifluoromethyl)tetra hydrofuran-2-carboxamido)pyridine 1-oxide]
11 | – | > 8.00 | CCOc1c([C@H]2[C@H](C(=O)Nc3ccn(C)c(=O)c3)O[C@@](C)(C(F)(F)F)[C@H]2C)ccc(F)c1F (stereo in doubt) [Compound 103, rel-(2R,3S,4S,5R)-3-(2-ethoxy-3,4-difluorophenyl)-4,5-dimethyl-N-(1-methyl-2-oxo-1,2-dihydropyridin-4-yl)-5-(trifluoromethyl)tetrahydrofuran-2-carboxamide]
12 | – | 6.00 to 7.00 | COc1c([C@H]2[C@H](C(=O)Nc3cnc4c(c3)OCC4O)O[C@@](C)(C(F)(F)F)[C@H]2C)ccc(F)c1F (single isomer, unassigned) [Compound 409, rel-(2R*,3S*,4S*,5R*)-3-(3,4-difluoro-2-methoxyphenyl)-N-(3-hydroxy-2,3-dihydrofuro[3,2-b]pyridin-6-yl)-4,5-dimethyl-5-(trifluoromethyl)-tetrahydrofuran-2-carboxamide]
13 | – | > 8.00 | CCOc1c([C@H]2[C@H](C(=O)Nc3ccn(C)c(=O)c3)O[C@@](C)(C(F)(F)F)[C@H]2C)ccc(F)c1F (stereo in doubt) [Compound 101, rac-(2R,3S,4S,5R)-3-(2-ethoxy-3,4-difluorophenyl)-4,5-dimethyl-N-(1-methyl-2-oxo-1,2-dihydropyridin-4-yl)-5-(trifluoromethyl)tetrahydrofuran-2-carboxamide]
14 | – | > 8.00 | COc1c([C@H]2[C@H](C(=O)Nc3ccc(C(N)=O)nc3)O[C@@](C)(C(F)(F)F)[C@H]2C)ccc(OC(F)F)c1F [Compound 682, 5-((2R,3S,4S,5R)-3-(4-(difluoromethoxy)-3-fluoro-2-methoxyphenyl)-4,5-dimethyl-5-(trifluoromethyl)tetrahydrofuran-2-carboxamido)picolinamide]
15 | – | 7.00 to 8.00 | Cc1nn(C(F)F)cc1NC(=O)[C@@H]1O[C@@](C)(C(F)(F)F)[C@@H](C)[C@H]1c1ccc(F)c(F)c1C(C)O (relative stereo) [Compound 680, rac-(2R*,3S*,4S*,5R*)-3-(3,4-difluoro-2-(1-hydroxyethyl)phenyl)-N-(1-(difluoromethyl)-3-methyl-1H-pyrazol-4-yl)-4,5-dimethyl-5-(trifluoromethyl)tetrahydrofuran-2-carboxamide]
16 | – | 7.00 to 8.00 | CC(=O)N(C)c1cc(NC(=O)[C@@H]2O[C@@](C)(C(F)(F)F)[C@@H](C)[C@H]2c2ccc(F)c(F)c2OCCN2CC3(COC3)C2)ccn1 [Compound 637, (2R,3S,4S,5R)-N-[2-[acetyl(methyl)amino]-4-pyridyl]-3-[3,4-difluoro-2-[2-(2-oxa-6-azaspiro[3.3]heptan-6-yl)ethoxy]phenyl]-4,5-dimethyl-5-(trifluoromethyl)tetrahydrofuran-2-carboxamide]
17 | – | ≤ 6.00 | CC(C)Oc1c(C2C(C(=O)Nc3cc(S(C)(=O)=O)ccn3)OC(C)(C(F)(F)F)C2C)ccc(F)c1F (stereo not shown) [Compound 115, 3-(3,4-difluoro-2-isopropoxy-phenyl)-4,5-dimethyl-N-(4-methylsulfonyl-2-pyridyl)-5-(trifluoromethyl)tetrahydrofuran-2-carboxamide]
18 | – | > 8.00 | COc1c([C@H]2[C@H](C(=O)Nc3ccnc(O[C@H]4COC[C@H]4O)c3)O[C@@](C)(C(F)(F)F)[C@H]2C)ccc(F)c1F (single isomer, unassigned) [Compound 240, rel-(2R*,3S*,4S*,5R*)-3-(3,4-difluoro-2-methoxyphenyl)-N-(2-(((3S,4R)-4-hydroxytetrahydrofuran-3-yl)oxy)pyridin-4-yl)-4,5-dimethyl-5-(trifluoromethyl)tetrahydrofuran-2-carboxamide]

Row | Compound | pIC50 (in the presence of human serum (compound numbers followed by *), read-out: IC50 in the E-VIPR Assay, performed in the presence of human serum) | pIC50 [1]
19 | COc1c([C@H]2[C@H](C(=O)Nc3ccnc(N4C[C@H]5CC[C@H](N5)C4=O)c3)O[C@@](C)(C(F)(F)F)[C@H]2C)ccc(F)c1F (single isomer, unassigned) [Compound 493, rel-(2R*,3S*,4S*,5R*)-3-(3,4-difluoro-2-methoxyphenyl)-4,5-dimethyl-N-(2-((1S,5R)-2-oxo-3,8-diazabicyclo[3.2.1]octan-3-yl)pyridin-4-yl)-5-(trifluoromethyl)tetrahydrofuran-2-carboxamide] | – | 7.00 to 8.00
